Assay results taken from PubChem BioAssay (NCI).
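GI50 = concentration required for 50% inhibition of growth. The concentration for full growth arrest is given as TGI.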

Tests used:
Assay in all cases: NCI anticancer screen, dose series, 384-well format; in the data active = GI50 below about 0.43 µM; inactive = the rest
786-0 renal = test system: 786-0 renal
A498 renal = test system: A498 renal
A549 NSCLC = test system: A549 NSCLC
ACHN renal = test system: ACHN renal
BT-549 breast = test system: BT-549 breast
CAKI-1 renal = test system: CAKI-1 renal
CCRF-CEM leukemia = test system: CCRF-CEM leukemia
COLO 205 colon = test system: COLO 205 colon
DU-145 prostate = test system: DU-145 prostate
EKVX NSCLC = test system: EKVX NSCLC
HCC-2998 colon = test system: HCC-2998 colon
HCT-116 colon = test system: HCT-116 colon
HCT-15 colon = test system: HCT-15 colon
HL-60(TB) leukemia = test system: HL-60(TB) leukemia
HOP-62 NSCLC = test system: HOP-62 NSCLC
HOP-92 NSCLC = test system: HOP-92 NSCLC
HS 578T breast = test system: HS 578T breast
HT29 colon = test system: HT29 colon
IGROV1 ovarian = test system: IGROV1 ovarian
KM12 colon = test system: KM12 colon
LOX IMVI melanoma = test system: LOX IMVI melanoma
M14 melanoma = test system: M14 melanoma
MALME-3M melanoma = test system: MALME-3M melanoma
MCF7 breast = test system: MCF7 breast
MDA-MB-231 breast = test system: MDA-MB-231 breast
MDA-MB-435 melanoma = test system: MDA-MB-435 melanoma
MDA-MB-468 breast = test system: MDA-MB-468 breast
MOLT-4 leukemia = test system: MOLT-4 leukemia
NCI-H226 lung = test system: NCI-H226 lung
NCI-H23 lung = test system: NCI-H23 lung
NCI-H460 NSCLC = test system: NCI-H460 NSCLC
NCI-H522 lung = test system: NCI-H522 lung
NCI/ADR-RES ovarian = test system: NCI/ADR-RES ovarian
OVCAR-3 ovarian = test system: OVCAR-3 ovarian
OVCAR-4 ovarian = test system: OVCAR-4 ovarian
OVCAR-5 ovarian = test system: OVCAR-5 ovarian
OVCAR-8 ovarian = test system: OVCAR-8 ovarian
PC-3 prostate = test system: PC-3 prostate
RPMI-8226 leukemia = test system: RPMI-8226 leukemia
RXF 393 renal = test system: RXF 393 renal
SF-268 CNS = test system: SF-268 CNS
SF-295 CNS = test system: SF-295 CNS
SF-539 CNS = test system: SF-539 CNS
SK-MEL-28 melanoma = test system: SK-MEL-28 melanoma
SK-MEL-5 melanoma = test system: SK-MEL-5 melanoma
SK-OV-3 ovarian = test system: SK-OV-3 ovarian
SN12C renal = test system: SN12C renal
SNB-19 CNS = test system: SNB-19 CNS
SNB-75 CNS = test system: SNB-75 CNS
SR leukemia = test system: SR leukemia
SW-620 colon = test system: SW-620 colon
TK-10 renal = test system: TK-10 renal
UACC-257 melanoma = test system: UACC-257 melanoma
UACC-62 melanoma = test system: UACC-62 melanoma
UO-31 renal = test system: UO-31 renal

CCN1C(=O)N(c2c(F)c(OC)cc(OC)c2F)Cc2cnc3[nH]c(CN4CCOCC4)cc3c21
active: GI50 (BT-549 breast) 0.0807 µM | GI50 (SNB-75 CNS) 0.0229 µM
> 30.1 µM: TGI (MALME-3M melanoma)
12.5 µM: TGI (HL-60(TB) leukemia)
inactive: GI50 (786-0 renal) 6.99 µM | GI50 (A498 renal) 2.03 µM | GI50 (A549 NSCLC) 4.69 µM | GI50 (ACHN renal) 3.86 µM | GI50 (CAKI-1 renal) 1.03 µM | GI50 (CCRF-CEM leukemia) 5.26 µM | GI50 (COLO 205 colon) > 100 µM | GI50 (DU-145 prostate) 3.85 µM | GI50 (EKVX NSCLC) > 81 µM | GI50 (HCC-2998 colon) 6.61 µM | GI50 (HCT-116 colon) 3.84 µM | GI50 (HCT-15 colon) 3.17 µM | GI50 (HL-60(TB) leukemia) 3.28 µM | GI50 (HOP-62 NSCLC) 4.98 µM | GI50 (HOP-92 NSCLC) 3.5 µM | GI50 (HS 578T breast) 1.06 µM | GI50 (HT29 colon) 6.48 µM | GI50 (IGROV1 ovarian) 4.55 µM | GI50 (KM12 colon) 9.71 µM | GI50 (LOX IMVI melanoma) 4.03 µM | GI50 (M14 melanoma) 5.19 µM | GI50 (MALME-3M melanoma) 4.24 µM | GI50 (MCF7 breast) > 60.4 µM | GI50 (MDA-MB-231 breast) 6.15 µM | GI50 (MDA-MB-435 melanoma) > 100 µM | GI50 (MDA-MB-468 breast) 3.64 µM | GI50 (MOLT-4 leukemia) 1.95 µM | GI50 (NCI-H23 lung) > 23.3 µM | GI50 (NCI-H460 NSCLC) 3.48 µM | GI50 (NCI-H522 lung) > 26.1 µM | GI50 (NCI/ADR-RES ovarian) 4.51 µM | GI50 (OVCAR-3 ovarian) 5.94 µM | GI50 (OVCAR-4 ovarian) 19.3 µM | GI50 (OVCAR-5 ovarian) > 73.3 µM | GI50 (OVCAR-8 ovarian) 4.8 µM | GI50 (PC-3 prostate) > 100 µM | GI50 (RPMI-8226 leukemia) 2.11 µM | GI50 (RXF 393 renal) 0.962 µM | GI50 (SF-268 CNS) 5.25 µM | GI50 (SF-295 CNS) 4.62 µM | GI50 (SF-539 CNS) 3.55 µM | GI50 (SK-MEL-28 melanoma) > 100 µM | GI50 (SK-MEL-5 melanoma) 5.75 µM | GI50 (SK-OV-3 ovarian) 2.62 µM | GI50 (SN12C renal) 5.32 µM | GI50 (SNB-19 CNS) > 100 µM | GI50 (SR leukemia) 2.67 µM | GI50 (SW-620 colon) 7.31 µM | GI50 (TK-10 renal) > 100 µM | GI50 (UACC-257 melanoma) > 100 µM | GI50 (UACC-62 melanoma) 3.8 µM | GI50 (UO-31 renal) > 31 µM
> 44.5 µM: TGI (SF-539 CNS)
5.82 µM: TGI (HS 578T breast)
9.91 µM: TGI (NCI-H226 lung)
47.4 µM: TGI (SF-295 CNS)
8.35 µM: TGI (SR leukemia)
7.02 µM: TGI (BT-549 breast)
6.52 µM: TGI (SNB-75 CNS)
4 µM: TGI (MOLT-4 leukemia)
> 31.5 µM: TGI (LOX IMVI melanoma)
> 31.4 µM: TGI (CAKI-1 renal)
9.09 µM: TGI (MDA-MB-468 breast)
23.6 µM: TGI (HOP-92 NSCLC)
16.9 µM: TGI (SF-268 CNS)
> 100 µM: TGI (786-0 renal) | TGI (ACHN renal) | TGI (COLO 205 colon) | TGI (DU-145 prostate) | TGI (EKVX NSCLC) | TGI (HCC-2998 colon) | TGI (HCT-116 colon) | TGI (HCT-15 colon) | TGI (HOP-62 NSCLC) | TGI (IGROV1 ovarian) | TGI (M14 melanoma) | TGI (MCF7 breast) | TGI (MDA-MB-435 melanoma) | TGI (NCI-H23 lung) | TGI (NCI-H522 lung) | TGI (NCI/ADR-RES ovarian) | TGI (OVCAR-4 ovarian) | TGI (OVCAR-5 ovarian) | TGI (OVCAR-8 ovarian) | TGI (PC-3 prostate) | TGI (SK-MEL-28 melanoma) | TGI (SK-MEL-5 melanoma) | TGI (SK-OV-3 ovarian) | TGI (SN12C renal) | TGI (SNB-19 CNS) | TGI (TK-10 renal) | TGI (UACC-257 melanoma) | TGI (UACC-62 melanoma) | TGI (UO-31 renal)
6.34 µM: TGI (RPMI-8226 leukemia)
57.3 µM: TGI (A498 renal)
> 31.6 µM: TGI (A549 NSCLC) | TGI (KM12 colon) | TGI (NCI-H460 NSCLC) | TGI (OVCAR-3 ovarian)
43.5 µM: TGI (MDA-MB-231 breast)
